Data published in the supplement of paper PMC10307832.

Each cell line was assayed with N#CC1(c2ccc(NC(=O)c3cccnc3NCc3ccncc3)cc2)CCCC1 [Apatinib] + C[C@@H](Oc1cc(-c2cnn(C3CCNCC3)c2)cnc1N)c1c(Cl)ccc(F)c1Cl [Crizotinib] (partner 1 µM) (assay: relative viability (nuclei count vs DMSO), 5 days (fraction); higher = more cells survive). Details: first compound 0.08 µM.
Summary of the method: (§1)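 Lung cancer cell lines in 1536-well plates got either a single drug or a fixed anchor-drug dose together with five library-drug doses (not always all listed) in √10 steps, by pin tool, on the day after seeding. Nuclei were counted after 5 days, and relative viability is the treated-to-vehicle ratio of nuclei counts. Values are medians of duplicate plates.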

Cell Line	relative viability
RERF-LC-KJ	0.776
SK-LU-1	1.04
SW 1573	0.946
UMC-11	0.619

Same assay, conditions: first compound 0.253 µM

Cell Line	relative viability
RERF-LC-KJ	0.834
SK-LU-1	0.806
SW 1573	0.867
UMC-11	0.57

Same assay, conditions: first compound 0.8 µM

Cell Line	relative viability
RERF-LC-KJ	0.778
SK-LU-1	0.761
SW 1573	0.748
UMC-11	0.617

Same assay, conditions: first compound 2.53 µM

Cell Line	relative viability
RERF-LC-KJ	0.704
SK-LU-1	0.785
SW 1573	0.74
UMC-11	0.519

Same assay, conditions: first compound 8 µM

Cell Line	relative viability
RERF-LC-KJ	0.629
SK-LU-1	0.566
SW 1573	0.58
UMC-11	0.493

The cell lines below were run with CN(C)C(=N)NC(=N)N [Metformin] + CC(C)C[C@H](NC(=O)[C@H](Cc1ccccc1)NC(=O)c1cnccn1)B(O)O [Bortezomib] (partner 0.002 µM) in the same assay as above. Details: first compound 10 µM.
Summary of the method: as §1

Cell Line	relative viability
RERF-LC-KJ	1.14
SK-LU-1	1.45
SW 1573	1.19
UMC-11	0.56

Same assay, conditions: first compound 31.62 µM

Cell Line	relative viability
RERF-LC-KJ	1.15
SK-LU-1	1.2
SW 1573	1.15
UMC-11	0.914

Same assay, conditions: first compound 100 µM

Cell Line	relative viability
RERF-LC-KJ	1.1
SK-LU-1	1.1
SW 1573	0.963
UMC-11	0.791

Same assay, conditions: first compound 316.23 µM

Cell Line	relative viability
RERF-LC-KJ	1.01
SK-LU-1	1.06
SW 1573	1
UMC-11	0.694

Same assay, conditions: first compound 1000 µM

Cell Line	relative viability
RERF-LC-KJ	0.988
SK-LU-1	1.27
SW 1573	1.36
UMC-11	0.618

What follows are cell lines tested with CN(C)C(=N)NC(=N)N [Metformin] + CC(=O)Nc1cccc(-n2c(=O)n(C3CC3)c(=O)c3c(Nc4ccc(I)cc4F)n(C)c(=O)c(C)c32)c1 [Trametinib] (partner 0.02 µM) in the same assay as above. Details: first compound 10 µM.
Summary of the method: as §1

Cell Line	relative viability
RERF-LC-KJ	0.774
SK-LU-1	0.452
SW 1573	0.67
UMC-11	0.552

Same assay, conditions: first compound 31.62 µM

Cell Line	relative viability
RERF-LC-KJ	0.794
SK-LU-1	0.453
SW 1573	0.559
UMC-11	0.687

Same assay, conditions: first compound 100 µM

Cell Line	relative viability
RERF-LC-KJ	0.775
SK-LU-1	0.458
SW 1573	0.522
UMC-11	0.727

Same assay, conditions: first compound 316.23 µM

Cell Line	relative viability
RERF-LC-KJ	0.676
SK-LU-1	0.382
SW 1573	0.211
UMC-11	0.77

Same assay, conditions: first compound 1000 µM

Cell Line	relative viability
RERF-LC-KJ	0.707
SK-LU-1	0.442
SW 1573	0.367
UMC-11	0.572

Each cell line was assayed with CN(C)C(=N)NC(=N)N [Metformin] + Nc1ncn([C@H]2C[C@H](O)[C@@H](CO)O2)c(=O)n1 [Decitabine] (partner 2 µM) in the same assay as above. Details: first compound 10 µM.
Summary of the method: as §1

Cell Line	relative viability
RERF-LC-KJ	0.687
SK-LU-1	0.567
SW 1573	0.508
UMC-11	0.573

Same assay, conditions: first compound 31.62 µM

Cell Line	relative viability
RERF-LC-KJ	0.703
SK-LU-1	0.571
SW 1573	0.637
UMC-11	0.743

Same assay, conditions: first compound 100 µM

Cell Line	relative viability
RERF-LC-KJ	0.505
SK-LU-1	0.64
SW 1573	0.44
UMC-11	0.741

Same assay, conditions: first compound 316.23 µM

Cell Line	relative viability
RERF-LC-KJ	0.556
SK-LU-1	0.507
SW 1573	0.431
UMC-11	0.49

Same assay, conditions: first compound 1000 µM

Cell Line	relative viability
RERF-LC-KJ	0.514
SK-LU-1	0.615
SW 1573	0.421
UMC-11	0.437
